Assay results taken from ChEMBL document CHEMBL4033793, “Potent and Selective Inhibitors of Human Sirtuin 5” (J Med Chem, 2018).
pIC50: −log10 of the molar value. Residues, ends and D or L forms follow the SMILES beside them. *: point of attachment. X35 = O=C(O)[C@@H](CC(=O)*)SCc1ccc(C(F)(F)F)cc1; X46 = CC(C)(C)c1ccc(CS[C@@H](CC(=O)*)C(=O)O)cc1; X32 = O=C(O)[C@H](CC(=O)*)SCc1ccc(C(F)(F)F)cc1; X39 = O=C(O)[C@H](CC(=O)*)Sc1cc(Cl)cc(Cl)c1; X36 = O=C(O)[C@@H](CC(=O)*)Sc1ccc2ccccc2c1; X41 = O=C(O)[C@@H](CC(=O)*)Sc1cc(Cl)ccc1Cl; X38 = O=C(O)[C@H](CC(=O)*)Sc1cccc2ccccc12; X43 = O=C(O)[C@H](CC(=O)*)Sc1ccc(Cl)cc1Cl; X33 = Cc1ccc(S[C@@H](CC(=O)*)C(=O)O)cc1C; X34 = O=C(O)[C@@H](CC(=O)*)Sc1ccccc1Cl; X37 = O=C(O)[C@H](CC(=O)*)SCCCc1ccccc1; X40 = O=C(O)[C@H](CC(=O)*)SCc1ccccc1; X45 = O=C(O)[C@H](CC(=O)*)SC1CCCCC1; X44 = CC(CC(=O)*)Sc1ccc2ccccc2c1; X42 = O=C(CCSc1ccc2ccccc2c1)*; Bz = O=C(c1ccccc1)*

These molecules were tested against NAD-dependent protein deacylase sirtuin-5, mitochondrial (Homo sapiens, UniProt Q9NXA8) (assay: Inhibition of human recombinant N-terminal Strep2-tagged SIRT5 expressed in Escherichia coli BL21 (DE3) using Abz-GVLK(glutaryl)AY(NO2)GV-NH2 as substrate in presence of NAD+ by fluorescence assay).
NAD-dependent protein deacylase sirtuin-5, mitochondrial, sequence (Q9NXA8 whole entry): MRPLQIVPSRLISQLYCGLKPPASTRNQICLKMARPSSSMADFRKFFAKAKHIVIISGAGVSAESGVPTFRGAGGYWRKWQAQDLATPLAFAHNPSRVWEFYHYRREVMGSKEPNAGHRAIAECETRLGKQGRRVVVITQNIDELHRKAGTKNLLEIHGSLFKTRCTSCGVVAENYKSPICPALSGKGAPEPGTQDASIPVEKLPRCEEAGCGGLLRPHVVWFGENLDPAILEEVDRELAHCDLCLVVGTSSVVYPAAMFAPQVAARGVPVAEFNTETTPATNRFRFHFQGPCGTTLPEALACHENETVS

Compound | pIC50
CC(C)C[C@H](NC(=O)[C@@H](NC(=O)CNC(=O)c1ccccc1)C(C)C)C(=O)N[C@@H](CCCCNC(=O)C[C@H](SCc1ccc(C(F)(F)F)cc1)C(=O)O)C(=O)N[C@@H](CCC(=O)O)C(=O)N[C@@H](Cc1ccc(O)cc1)C(=O)NCC(=O)N[C@H](C(N)=O)C(C)C (Bz-GVLK(X32)EYGV-NH2) | 6.10
Cc1ccc(S[C@@H](CC(=O)NCCCC[C@H](NC(=O)[C@H](CC(C)C)NC(=O)[C@@H](NC(=O)CNC(=O)c2ccccc2)C(C)C)C(=O)N[C@@H](CCC(=O)O)C(=O)N[C@@H](Cc2ccc(O)cc2)C(=O)NCC(=O)N[C@H](C(N)=O)C(C)C)C(=O)O)cc1C (Bz-GVLK(X33)EYGV-NH2) | 7.34
CC(C)C[C@H](NC(=O)[C@@H](NC(=O)CNC(=O)c1ccccc1)C(C)C)C(=O)N[C@@H](CCCCNC(=O)C[C@@H](SCc1ccc(C(F)(F)F)cc1)C(=O)O)C(=O)N[C@@H](CCC(=O)O)C(=O)N[C@@H](Cc1ccc(O)cc1)C(=O)NCC(=O)N[C@H](C(N)=O)C(C)C (Bz-GVLK(X35)EYGV-NH2) | 5.66
CC(C)C[C@H](NC(=O)[C@@H](NC(=O)CNC(=O)c1ccccc1)C(C)C)C(=O)N[C@@H](CCCCNC(=O)C[C@H](SCCCc1ccccc1)C(=O)O)C(=O)N[C@@H](CCC(=O)O)C(=O)N[C@@H](Cc1ccc(O)cc1)C(=O)NCC(=O)N[C@H](C(N)=O)C(C)C (Bz-GVLK(X37)EYGV-NH2) | 5.95
CC(C)C[C@H](NC(=O)[C@@H](NC(=O)CNC(=O)c1ccccc1)C(C)C)C(=O)N[C@@H](CCCCNC(=O)C[C@H](Sc1cc(Cl)cc(Cl)c1)C(=O)O)C(=O)N[C@@H](CCC(=O)O)C(=O)N[C@@H](Cc1ccc(O)cc1)C(=O)NCC(=O)N[C@H](C(N)=O)C(C)C (Bz-GVLK(X39)EYGV-NH2) | 7.06
CC(C)C[C@H](NC(=O)[C@@H](NC(=O)CNC(=O)c1ccccc1)C(C)C)C(=O)N[C@@H](CCCCNC(=O)CCSc1ccc2ccccc2c1)C(=O)N[C@@H](CCC(=O)O)C(=O)N[C@@H](Cc1ccc(O)cc1)C(=O)NCC(=O)N[C@H](C(N)=O)C(C)C (Bz-GVLK(X42)EYGV-NH2) | < 4.40
CC(C)C[C@H](NC(=O)[C@@H](NC(=O)CNC(=O)c1ccccc1)C(C)C)C(=O)N[C@@H](CCCCNC(=O)CC(C)Sc1ccc2ccccc2c1)C(=O)N[C@@H](CCC(=O)O)C(=O)N[C@@H](Cc1ccc(O)cc1)C(=O)NCC(=O)N[C@H](C(N)=O)C(C)C (stereo not given in full) (Bz-GVLK(X44)EYGV-NH2) | < 4.40
CC(C)C[C@H](NC(=O)[C@@H](NC(=O)CNC(=O)c1ccccc1)C(C)C)C(=O)N[C@@H](CCCCNC(=O)C[C@H](SC1CCCCC1)C(=O)O)C(=O)N[C@@H](CCC(=O)O)C(=O)N[C@@H](Cc1ccc(O)cc1)C(=O)NCC(=O)N[C@H](C(N)=O)C(C)C (Bz-GVLK(X45)EYGV-NH2) | < 5.40
CC(C)C[C@H](NC(=O)[C@@H](NC(=O)CNC(=O)c1ccccc1)C(C)C)C(=O)N[C@@H](CCCCNC(=O)C[C@H](SCc1ccc(C(C)(C)C)cc1)C(=O)O)C(=O)N[C@@H](CCC(=O)O)C(=O)N[C@@H](Cc1ccc(O)cc1)C(=O)NCC(=O)N[C@H](C(N)=O)C(C)C (Bz-GVLK(X46)EYGV-NH2) | 6.10

More lines, now with the values ahead:

pIC50 | Compound
5.51 | CC(C)C[C@H](NC(=O)[C@@H](NC(=O)CNC(=O)c1ccccc1)C(C)C)C(=O)N[C@@H](CCCCNC(=O)C[C@@H](Sc1ccccc1Cl)C(=O)O)C(=O)N[C@@H](CCC(=O)O)C(=O)N[C@@H](Cc1ccc(O)cc1)C(=O)NCC(=O)N[C@H](C(N)=O)C(C)C (Bz-GVLK(X34)EYGV-NH2)
5.93 | CC(C)C[C@H](NC(=O)[C@@H](NC(=O)CNC(=O)c1ccccc1)C(C)C)C(=O)N[C@@H](CCCCNC(=O)C[C@@H](Sc1ccc2ccccc2c1)C(=O)O)C(=O)N[C@@H](CCC(=O)O)C(=O)N[C@@H](Cc1ccc(O)cc1)C(=O)NCC(=O)N[C@H](C(N)=O)C(C)C (Bz-GVLK(X36)EYGV-NH2)
7.02 | CC(C)C[C@H](NC(=O)[C@@H](NC(=O)CNC(=O)c1ccccc1)C(C)C)C(=O)N[C@@H](CCCCNC(=O)C[C@H](Sc1cccc2ccccc12)C(=O)O)C(=O)N[C@@H](CCC(=O)O)C(=O)N[C@@H](Cc1ccc(O)cc1)C(=O)NCC(=O)N[C@H](C(N)=O)C(C)C (Bz-GVLK(X38)EYGV-NH2)
6.47 | CC(C)C[C@H](NC(=O)[C@@H](NC(=O)CNC(=O)c1ccccc1)C(C)C)C(=O)N[C@@H](CCCCNC(=O)C[C@H](SCc1ccccc1)C(=O)O)C(=O)N[C@@H](CCC(=O)O)C(=O)N[C@@H](Cc1ccc(O)cc1)C(=O)NCC(=O)N[C@H](C(N)=O)C(C)C (Bz-GVLK(X40)EYGV-NH2)
5.70 | CC(C)C[C@H](NC(=O)[C@@H](NC(=O)CNC(=O)c1ccccc1)C(C)C)C(=O)N[C@@H](CCCCNC(=O)C[C@@H](Sc1cc(Cl)ccc1Cl)C(=O)O)C(=O)N[C@@H](CCC(=O)O)C(=O)N[C@@H](Cc1ccc(O)cc1)C(=O)NCC(=O)N[C@H](C(N)=O)C(C)C (Bz-GVLK(X41)EYGV-NH2)
6.75 | CC(C)C[C@H](NC(=O)[C@@H](NC(=O)CNC(=O)c1ccccc1)C(C)C)C(=O)N[C@@H](CCCCNC(=O)C[C@H](Sc1ccc(Cl)cc1Cl)C(=O)O)C(=O)N[C@@H](CCC(=O)O)C(=O)N[C@@H](Cc1ccc(O)cc1)C(=O)NCC(=O)N[C@H](C(N)=O)C(C)C (Bz-GVLK(X43)EYGV-NH2)
